Results on 3 compounds are retold here after paper PMC8237267 (Journal of Medicinal Chemistry, 2021).

The target in data set [1] is T1, HDAC11 (Homo sapiens, UniProt Q96DB2).
T1 construct: The full-length human HDACs were recombinantly expressed and purified from SF9 insect cells; host or cells: SF9 insect cells
T1 sequence (Q96DB2 1-347): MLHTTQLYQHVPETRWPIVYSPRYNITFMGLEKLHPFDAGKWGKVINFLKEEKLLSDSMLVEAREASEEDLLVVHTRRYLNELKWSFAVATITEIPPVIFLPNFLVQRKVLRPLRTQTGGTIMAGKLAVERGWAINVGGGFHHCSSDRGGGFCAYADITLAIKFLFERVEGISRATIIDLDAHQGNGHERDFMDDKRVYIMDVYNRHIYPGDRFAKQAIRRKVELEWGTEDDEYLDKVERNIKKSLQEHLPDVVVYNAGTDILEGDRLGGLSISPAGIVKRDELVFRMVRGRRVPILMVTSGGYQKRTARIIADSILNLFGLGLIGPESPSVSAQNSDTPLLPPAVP
The data set can be described thus: HDAC EMSA activity assay (Nanosyn). In kind it is biochemical. To be noted: recombinant enzyme, read-out: In vitro IC50 HDAC11. On the technique in general: A gel shift assay detects complexes by their altered migration in electrophoresis.

Data set [2] deals with MRC-9. Put plainly: Cytotoxicity assay (Cell Titer-Blue, 72 h). In kind it is cell-based. To be noted: MRC9; MRC-9 (healthy fibroblasts); read-out: In cellulo IC50 MRC-9. For orientation: Alamar Blue is a resazurin reagent that responds to reducing activity.
Data set [3] deals with T2, HDAC3 (Homo sapiens, UniProt O15379).
T2 construct: The full-length human HDACs were recombinantly expressed and purified from SF9 insect cells; host or cells: SF9 insect cells
The data set can be described thus: HDAC EMSA activity assay (Nanosyn). To be noted: recombinant enzyme, read-out: In vitro IC50 HDAC3. In kind it is biochemical.

The target in data set [4] is T3, HDAC8 (Homo sapiens, UniProt Q9BY41).
T3 construct: The full-length human HDACs were recombinantly expressed and purified from SF9 insect cells; host or cells: SF9 insect cells
T3 sequence (Q9BY41 1-377): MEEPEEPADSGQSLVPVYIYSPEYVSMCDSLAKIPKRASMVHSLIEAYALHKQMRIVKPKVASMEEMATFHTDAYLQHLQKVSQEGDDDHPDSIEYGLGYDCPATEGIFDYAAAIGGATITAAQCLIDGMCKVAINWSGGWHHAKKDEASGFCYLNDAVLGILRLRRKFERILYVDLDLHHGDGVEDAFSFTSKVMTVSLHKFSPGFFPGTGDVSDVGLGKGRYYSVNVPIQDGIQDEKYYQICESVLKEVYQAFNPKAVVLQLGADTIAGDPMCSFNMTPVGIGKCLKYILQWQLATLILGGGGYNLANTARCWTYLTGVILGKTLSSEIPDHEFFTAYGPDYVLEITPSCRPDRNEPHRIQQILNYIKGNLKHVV
Put plainly: HDAC EMSA activity assay (Nanosyn). In kind it is biochemical. The following applies: recombinant enzyme, EMSA (Nanosyn); read-out: In vitro IC50 HDAC8.

Data set [5] relates to MV4-11. The data set can be described thus: Cytotoxicity assay (Cell Titer-Blue, 72 h). In kind it is cell-based. To be noted: Homo sapiens; MV4-11 (AML); read-out: In cellulo IC50 MV4-11.
Data set [6] addresses T4, HDAC6 (Homo sapiens, UniProt Q9UBN7).
T4 sequence (Q9UBN7 1-1215): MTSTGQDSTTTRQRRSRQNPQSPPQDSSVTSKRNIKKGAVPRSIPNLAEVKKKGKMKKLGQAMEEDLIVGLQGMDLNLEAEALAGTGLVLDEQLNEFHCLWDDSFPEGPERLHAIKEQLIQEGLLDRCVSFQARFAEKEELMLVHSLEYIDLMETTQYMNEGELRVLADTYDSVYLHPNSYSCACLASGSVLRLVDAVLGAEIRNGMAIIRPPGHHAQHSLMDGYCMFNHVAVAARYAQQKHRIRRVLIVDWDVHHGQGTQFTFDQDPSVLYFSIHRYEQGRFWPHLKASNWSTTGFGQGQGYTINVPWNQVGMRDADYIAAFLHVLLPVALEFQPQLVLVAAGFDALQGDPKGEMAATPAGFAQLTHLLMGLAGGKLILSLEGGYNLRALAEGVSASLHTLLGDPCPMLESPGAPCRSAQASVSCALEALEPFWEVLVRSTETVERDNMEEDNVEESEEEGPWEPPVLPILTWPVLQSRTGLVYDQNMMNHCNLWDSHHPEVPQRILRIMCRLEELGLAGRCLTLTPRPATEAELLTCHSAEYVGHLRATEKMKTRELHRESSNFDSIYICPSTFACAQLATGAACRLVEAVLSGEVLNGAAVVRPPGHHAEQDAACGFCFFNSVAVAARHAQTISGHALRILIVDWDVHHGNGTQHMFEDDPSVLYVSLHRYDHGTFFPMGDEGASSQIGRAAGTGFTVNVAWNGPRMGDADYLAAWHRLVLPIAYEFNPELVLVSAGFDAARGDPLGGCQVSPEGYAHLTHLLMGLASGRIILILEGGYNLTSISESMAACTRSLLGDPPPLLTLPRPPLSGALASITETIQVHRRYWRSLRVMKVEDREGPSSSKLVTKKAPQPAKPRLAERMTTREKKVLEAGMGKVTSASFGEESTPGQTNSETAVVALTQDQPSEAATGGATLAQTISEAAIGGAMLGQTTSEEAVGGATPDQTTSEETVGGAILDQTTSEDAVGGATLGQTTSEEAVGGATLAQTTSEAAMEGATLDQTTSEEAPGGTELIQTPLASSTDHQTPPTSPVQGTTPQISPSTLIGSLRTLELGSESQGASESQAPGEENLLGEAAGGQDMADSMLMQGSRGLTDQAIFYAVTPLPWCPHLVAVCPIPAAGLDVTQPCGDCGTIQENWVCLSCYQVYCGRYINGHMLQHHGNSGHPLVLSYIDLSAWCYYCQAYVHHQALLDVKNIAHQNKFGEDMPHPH
Put plainly: Reversibility of inhibition (Koff kinetics), residence time. To be noted: compound-HDAC6 complex; read-out: in vitro residence time (1/kobs). In kind it is biochemical. An excerpt:
Progress curves were obtained after dilution, and enzyme recovery was fitted with the following equation: % conv = Vs × t + (Vi – Vs)/Kobs app × (1 – exp(−Kobs app × t), in which Vi is the initial velocity, Vs is steady state velocity, and Kobs is the observed rate constant. The obtained Kobs rate constant was used to determine the reversibility of inhibition and calculate residence time as 1/2Tres = ln2 × 1/Kobs.

For data set [7], the target named is T4, HDAC6. The data set can be described thus: HDAC EMSA activity assay (Nanosyn). In kind it is biochemical. More on the design: The full-length human HDACs were recombinantly expressed and purified from SF9 insect cells; host or cells: SF9 insect cells. The following applies: for IC50: EMSA (Nanosyn); for HDAC6 fold-selectivity: over the next closest HDAC isoform tested, * = selectivity ≥ indicated value.

Data set [8] is described as follows: Stability in hepatocytes (species not stated). In kind it is in vitro ADME. More on the design: dose or concentration left out as unconfirmed. To be noted: mouse, species not given.
The target in data set [9] is T4, HDAC6. The data set can be described thus: Time-dependent IC50 assay with preincubation (0-6 h). The following applies: 6 h time-dependent assay. In kind it is biochemical. The procedure:
The binding kinetics profile of KT-531 was also investigated by determining the association (kon)/dissociation (koff) rates as well as residence time parameters. The in vitro residence time (1/kobs) for the KT-531–HDAC6 complex was determined to be 23.18 min, as compared to 10.72 min for 1.

The nature of data set [10]: Glutathione stability / reactivity assay. In kind it is in vitro ADME. The method, then: Although covalent modification of HDAC6 was not observed (Figure S2), the PFBS group is susceptible to nucleophilic aromatic substitution by biological nucleophiles. A previously described high-throughput in vitro glutathione-reactivity assay was conducted, where compounds were incubated in the presence of glutathione (GSH) and the formation of a GSH-compound adduct was monitored over time via LC/MS/MS.[50]
Compound was added to PBS and 5 mM GSH to reach a final concentration of 5 μM. […] Samples were vortexed and centrifuged for 45 min at 3220g. Aliquots were diluted by ultrapure water, and used for LC/MS/MS analysis. Peak area ratios were determined and percent compounds remaining was calculated by the following equation: [drawing 1] where peak area ratio (t min) is the peak area ratio of control and test compounds at t min; peak area ratio0min is the peak area ratio of control and test compounds at the zero time point. In vitro half-life (t1/2) = −(0.693/k).

Data set [11] in a line: In vitro stability in mouse hepatocytes. To be noted: read-out: Stability in mouse hepatocytes t1/2. In kind it is in vitro ADME. The procedure: The inhibitors (and controls) were formulated to concentrations of 100 μM in 50% acetonitrile/50% water. The medium (William’s E Medium supplemented with GlutaMAX) and hepatocyte thawing medium were allowed to reach room temperature and the hepatocytes and thawing medium and centrifuged at 100 g for 10 min. The supernatant was removed, and hepatocytes resuspended in the incubation medium (∼1.5 × 10^6 cells/mL). The cells were diluted to 0.5 × 10^6 viable cells/mL. A volume of 198 μL of hepatocytes was transferred to a 96-well noncoated plate and incubated at 37 °C for 10 min. Following this, 2 μL of the 100 μM test compounds or positive control was transferred into respective wells to start the reaction. At different time points (0, 15, 30, 60, 90, and 120 min), 25 μL aliquots were mixed with 6 volumes (150 μL) of acetonitrile containing internal standard, IS (100 nM alprazolam, 200 nM labetalol, 200 nM caffeine, and 200 nM diclofenac) to terminate the reaction. Samples were vortexed for 5 min and centrifuged for 45 min at 3220g, diluted by ultrapure water, followed by LC/MS/MS analysis. The in vitro half-life (T1/2) was determined by regression analysis of the percent parent disappearance vs time curve (T1/2 = 0.693/k) using Microsoft Excel.

Data set [12] is described as follows: Stability in human hepatocytes. To be noted: read-out: t1/2 in human hepatocytes. In kind it is in vitro ADME.
Data set [13] can be described thus: Stability in mouse plasma. In kind it is in vitro ADME. More on the design: half-life at 2 h: dose or concentration left out as unconfirmed. The following applies: read-out: Plasma stability t1/2. The method, then: The plasma stability of the compounds was evaluated in mouse plasma provided from Sigma-Aldrich, Oakville, Canada. The main stock solutions of the compounds were prepared at 10 mM in DMSO, which was diluted to 100 μM in 50% acetonitrile (ACN)/50% water. Aliquots of 356.5 μL of plasma proteins were placed in a heating block and allowed to equilibrate at 37 °C for 5 min. Then, 3.5 μL of 100 μM compound solutions were added to each vial (final concentration of 1 μM). Three quality control (QC) samples at 100, 500, and 1000 nM were prepared in 0.5% ACN. The vial contents were transferred in 50 μL aliquots at time points of 0.5, 5, 10, 20, 30, and 60 mi to a 96-well autosampler plate containing 150 μL of protein precipitation solution. Ice-cold ACN containing internals standards (100 nM glyburide) were used as the protein precipitation solution. After centrifugation at 4 °C, 5500 rpm for 15 min, the supernatant was diluted in MQ water, and injected into the LC/MS/MS for quantitative analysis.
The mobile phase consisted of (A) 0.1% (v/v) formic acid in Milli-Q water; (B) 0.1% (v/v) formic acid in acetonitrile. […] Peak areas were determined from extracted ion chromatograms. The in vitro half-life (t1/2) of parent compounds were determined by regression analysis of the percent parent disappearance vs time curve.

Where [14] appears, read: recombinant enzyme, read-out: In vitro IC50 HDAC6.
Setting [15] is: PBS with 5 mM glutathione (GSH), 5 mM GSH, PBS, read-out: half-life in incubation with GSH.

The term IC50 denotes the concentration at which inhibition is half-maximal.

Several values for one entry are separate records, joined by “and”; a condition that tells them apart may be missing. Equal entries are not always repeated. Where two headings read alike, the source gives them in different places.

T2 sequence (O15379 whole entry): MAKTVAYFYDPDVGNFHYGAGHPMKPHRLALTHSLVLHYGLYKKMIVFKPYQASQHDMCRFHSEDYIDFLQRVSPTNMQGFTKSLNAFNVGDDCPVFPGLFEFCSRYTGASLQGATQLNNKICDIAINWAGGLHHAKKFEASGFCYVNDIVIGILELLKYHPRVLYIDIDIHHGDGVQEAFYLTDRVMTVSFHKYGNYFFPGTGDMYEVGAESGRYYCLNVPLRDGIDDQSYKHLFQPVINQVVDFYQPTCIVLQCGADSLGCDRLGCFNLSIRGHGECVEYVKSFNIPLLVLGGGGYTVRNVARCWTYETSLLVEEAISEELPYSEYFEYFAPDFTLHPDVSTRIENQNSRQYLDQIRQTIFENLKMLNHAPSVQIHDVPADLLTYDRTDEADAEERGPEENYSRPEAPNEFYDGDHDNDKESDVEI
T2 sequence (Q9Y618 395-489 partner limits assumed): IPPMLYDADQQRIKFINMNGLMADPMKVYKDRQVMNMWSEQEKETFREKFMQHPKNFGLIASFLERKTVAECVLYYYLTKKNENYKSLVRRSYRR

In the case of `O=C(NO)c1ccc(CNC(=O)c2c(F)c(F)c(F)c(F)c2F)cc1` [Compound 1, 2,3,4,5,6-Pentafluoro-N-(4-(hydroxycarbamoyl)benzyl)benzamide], the half-maximal inhibitory concentration (IC50) in data set [1] was above 1000 nM; in [2], above 50 µM; in [3] it was 200 nM; in data set [4] it was 700 nM; in data set [5], 1.85 µM; in data set [7] (read-out: IC50 HDAC6), 5.9 nM. In addition, the IC50 in [7] (setting [14]) was 6 nM. In addition, the residence time in [6] stood at 10.7 min. For the same compound, the HDAC6 fold-selectivity in [7] is 36 fold and 36.32 fold.
Take `O=C(NO)c1ccc(CN(C2CC2)S(=O)(=O)c2c(F)c(F)c(F)c(F)c2F)cc1` [Compound 5, 4-(((N-Cyclopropyl-2,3,4,5,6-pentafluorophenyl)sulfonamido)methyl)-N-hydroxybenzamide]: the IC50 in data set [1] is 47 nM; in data set [2], above 20 µM; in data set [3], 70 nM; in [4], 29 nM; in data set [7] (read-out: IC50 HDAC6), 0.9 nM. Also, in [8], the half-life at 2 h worked out at 3 min. The “reversibility of binding (IC50 over preincubation time)” value in [9] was “unchanged IC50 values”. The half-life at 5 μM in data set [10] (setting [15]) was around 20 min. For the same compound, the half-life at 2 h, 5 µM in data set [10] (setting [15]) worked out at 20 min. Moreover, the half-life at 1 μM in data set [11] is below 2.26 min. For the same compound, the half-life in data set [12] stood at 3.84 min.
With `O=C(NO)c1ccc(CN(C2CC2)S(=O)(=O)c2c(F)c(F)cc(F)c2F)cc1` [Compound 6, 4-(((N-Cyclopropyl-2,3,5,6-tetrafluorophenyl)sulfonamido)methyl)-N-hydroxybenzamide], the IC50 in data set [1] was above 1000 nM; in [2], above 15 µM; in data set [3] it was above 1000 nM; in [4], 378 nM; in [5], 6.14 µM; in [7] (setting [14]), 10 nM. For the same compound, the “reactivity with glutathione” value in data set [10] (GSH adduct formation by LC/MS/MS, KT-531 up to 24 h) is “unreactive toward GSH”. Further, in data set [7], the HDAC6 fold-selectivity is given as 37.8 fold. Also, the half-life at 2 h in data set [13] was determined as 25 min.
